Assay results reported in ChEMBL document CHEMBL1137145, “Benzodiazepine inhibitors of the MMPs and TACE. Part 2” (Bioorg Med Chem Lett, 2004).

System: not listed separately
Assay: Ability to inhibit LPS-stimulated TNF production in THP-1 cells at 3 uM concentration
Format: functional
Conditions: Homo sapiens

Row | Compound | inhibition at 3 µM
1 | CC#CCOc1ccc(S(=O)(=O)N2Cc3ccccc3N(C(=O)COC)CC2C(=O)NO)cc1 (configuration not stated) | 73%
2 | CC#CCOc1ccc(S(=O)(=O)N2Cc3cc(NCCc4ccccn4)ccc3N(C(C)=O)CC2C(=O)NO)cc1 (configuration not stated) | 44%
3 | CC#CCOc1ccc(S(=O)(=O)N2Cc3cc(N(C)C)ccc3N(C(C)=O)CC2C(=O)NO)cc1 (configuration not stated) | 33%
4 | CC#CCOc1ccc(S(=O)(=O)N2Cc3cc(N(C)CCc4ccccn4)ccc3N(C(C)=O)CC2C(=O)NO)cc1 (configuration not stated) | 82%
5 | CC#CCOc1ccc(S(=O)(=O)N2Cc3ccc(CN(C)C)cc3N(C(C)=O)CC2C(=O)NO)cc1 (configuration not stated) | 70%
6 | CC#CCOc1ccc(S(=O)(=O)N2Cc3ccccc3N(C(=O)c3ccco3)CC2C(=O)NO)cc1 (configuration not stated) | 74%
7 | CC#CCOc1ccc(S(=O)(=O)N2Cc3ccccc3N(C(=O)c3cccnc3)CC2C(=O)NO)cc1 (configuration not stated) | 33%
8 | CC#CCOc1ccc(S(=O)(=O)N2Cc3ccc(CNC)cc3N(C(C)=O)CC2C(=O)NO)cc1 (configuration not stated) | 81%
9 | CC#CCOc1ccc(S(=O)(=O)N2Cc3ccccc3N(C(C)=O)CC2C(=O)NO)cc1 (configuration not stated) | 60%
10 | CC#CCOc1ccc(S(=O)(=O)N2Cc3ccc(CN4CCNCC4)cc3N(C(C)=O)CC2C(=O)NO)cc1 (configuration not stated) | 72%
11 | CC#CCOc1ccc(S(=O)(=O)N2Cc3ccc(CO)cc3N(C(C)=O)CC2C(=O)NO)cc1 (configuration not stated) | 63%
12 | CC#CCOc1ccc(S(=O)(=O)N2Cc3ccc(C(=O)NC)cc3N(C(C)=O)CC2C(=O)NO)cc1 (configuration not stated) | 64%
13 | CC#CCOc1ccc(S(=O)(=O)N2Cc3cc(OCCc4ccccc4)ccc3N(C(C)=O)CC2C(=O)NO)cc1 (configuration not stated) | 83%
14 | CC#CCOc1ccc(S(=O)(=O)N2Cc3ccc(CNC(C)=O)cc3N(C(C)=O)CC2C(=O)NO)cc1 (configuration not stated) | 46%
15 | CC#CCOc1ccc(S(=O)(=O)N2Cc3ccccc3N(C(=O)c3cnccn3)CC2C(=O)NO)cc1 (configuration not stated) | 41%
16 | CC#CCOc1ccc(S(=O)(=O)N2Cc3cc(N4CCOCC4)ccc3N(C(C)=O)CC2C(=O)NO)cc1 (configuration not stated) | 73%
17 | CC#CCOc1ccc(S(=O)(=O)N2Cc3cc(N4CCN(C)CC4)ccc3N(C(C)=O)CC2C(=O)NO)cc1 (configuration not stated) | 75%

Target: T1, Interstitial collagenase (Homo sapiens, UniProt P03956)
T1 sequence (P03956 whole entry): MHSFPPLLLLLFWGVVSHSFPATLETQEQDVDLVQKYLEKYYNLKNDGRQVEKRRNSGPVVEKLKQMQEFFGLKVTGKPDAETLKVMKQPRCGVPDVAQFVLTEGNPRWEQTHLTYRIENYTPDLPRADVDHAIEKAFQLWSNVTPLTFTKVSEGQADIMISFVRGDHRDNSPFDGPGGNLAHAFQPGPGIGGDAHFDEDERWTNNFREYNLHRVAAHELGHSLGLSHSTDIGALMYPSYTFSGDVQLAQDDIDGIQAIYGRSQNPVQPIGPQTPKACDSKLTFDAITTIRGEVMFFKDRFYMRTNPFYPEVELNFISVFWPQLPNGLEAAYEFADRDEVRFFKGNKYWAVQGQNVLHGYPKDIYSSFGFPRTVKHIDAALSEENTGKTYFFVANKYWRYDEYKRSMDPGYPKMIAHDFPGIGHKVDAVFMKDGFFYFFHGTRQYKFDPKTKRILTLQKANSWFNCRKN
Assay: In vitro inhibitory activity against matrix metalloprotease-1
Conditions: not given

Row | Compound | IC50
18 | CC#CCOc1ccc(S(=O)(=O)N2Cc3ccccc3N(C(=O)COC)CC2C(=O)NO)cc1 (configuration not stated) | 853 nM
19 | CC#CCOc1ccc(S(=O)(=O)N2Cc3cc(N(C)C)ccc3N(C(C)=O)CC2C(=O)NO)cc1 (configuration not stated) | 682 nM
20 | CC#CCOc1ccc(S(=O)(=O)N2Cc3ccc(CN(C)C)cc3N(C(C)=O)CC2C(=O)NO)cc1 (configuration not stated) | 904 nM
21 | CC#CCOc1ccc(S(=O)(=O)N2Cc3ccccc3N(C(=O)c3cccnc3)CC2C(=O)NO)cc1 (configuration not stated) | 238 nM
22 | CC#CCOc1ccc(S(=O)(=O)N2Cc3ccc(CNC)cc3N(C(C)=O)CC2C(=O)NO)cc1 (configuration not stated) | 456 nM
23 | CC#CCOc1ccc(S(=O)(=O)N2Cc3ccc(CN4CCNCC4)cc3N(C(C)=O)CC2C(=O)NO)cc1 (configuration not stated) | 483 nM
24 | CC#CCOc1ccc(S(=O)(=O)N2Cc3ccc(CO)cc3N(C(C)=O)CC2C(=O)NO)cc1 (configuration not stated) | 500 nM
25 | CC#CCOc1ccc(S(=O)(=O)N2Cc3ccc(C(=O)NC)cc3N(C(C)=O)CC2C(=O)NO)cc1 (configuration not stated) | 813 nM
26 | CC#CCOc1ccc(S(=O)(=O)N2Cc3ccc(CNC(C)=O)cc3N(C(C)=O)CC2C(=O)NO)cc1 (configuration not stated) | 578 nM
27 | CC#CCOc1ccc(S(=O)(=O)N2Cc3ccccc3N(C(=O)c3cnccn3)CC2C(=O)NO)cc1 (configuration not stated) | 356 nM
28 | CC#CCOc1ccc(S(=O)(=O)N2Cc3cc(N4CCOCC4)ccc3N(C(C)=O)CC2C(=O)NO)cc1 (configuration not stated) | 1260 nM
29 | CC#CCOc1ccc(S(=O)(=O)N2Cc3cc(N4CCN(C)CC4)ccc3N(C(C)=O)CC2C(=O)NO)cc1 (configuration not stated) | 852 nM

Target: Disintegrin and metalloproteinase domain-containing protein 17 (Homo sapiens, UniProt P78536)
Assay: Inhibitory activity against Tumor necrosis factor alpha converting enzyme
Conditions: not given

Disintegrin and metalloproteinase domain-containing protein 17, sequence (P78536 whole entry, the tested form may be a part): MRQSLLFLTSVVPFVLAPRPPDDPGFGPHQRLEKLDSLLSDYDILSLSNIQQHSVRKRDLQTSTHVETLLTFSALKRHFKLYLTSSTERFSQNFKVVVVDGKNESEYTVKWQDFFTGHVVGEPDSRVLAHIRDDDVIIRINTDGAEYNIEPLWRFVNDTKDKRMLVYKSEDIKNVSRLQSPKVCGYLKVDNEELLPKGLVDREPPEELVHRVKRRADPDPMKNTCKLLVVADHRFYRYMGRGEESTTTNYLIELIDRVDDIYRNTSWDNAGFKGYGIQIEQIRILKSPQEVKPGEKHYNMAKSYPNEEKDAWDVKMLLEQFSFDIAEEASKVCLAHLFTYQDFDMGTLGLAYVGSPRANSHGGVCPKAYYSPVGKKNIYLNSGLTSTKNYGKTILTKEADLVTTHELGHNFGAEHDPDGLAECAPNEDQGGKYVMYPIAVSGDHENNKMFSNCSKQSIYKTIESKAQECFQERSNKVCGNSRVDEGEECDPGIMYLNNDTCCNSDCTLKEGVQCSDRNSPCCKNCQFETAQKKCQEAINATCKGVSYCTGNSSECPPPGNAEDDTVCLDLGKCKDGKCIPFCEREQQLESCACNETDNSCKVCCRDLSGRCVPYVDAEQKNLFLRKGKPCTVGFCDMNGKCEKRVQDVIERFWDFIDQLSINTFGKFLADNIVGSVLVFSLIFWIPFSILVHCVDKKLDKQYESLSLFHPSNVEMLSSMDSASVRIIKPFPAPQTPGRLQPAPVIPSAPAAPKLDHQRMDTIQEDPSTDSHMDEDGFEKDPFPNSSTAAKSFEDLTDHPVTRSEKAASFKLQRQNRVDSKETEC

Row | Compound | IC50
30 | CC#CCOc1ccc(S(=O)(=O)N2Cc3ccccc3N(C(=O)COC)CC2C(=O)NO)cc1 (configuration not stated) | 81 nM
31 | CC#CCOc1ccc(S(=O)(=O)N2Cc3cc(NCCc4ccccn4)ccc3N(C(C)=O)CC2C(=O)NO)cc1 (configuration not stated) | 49 nM
32 | CC#CCOc1ccc(S(=O)(=O)N2Cc3cc(N(C)C)ccc3N(C(C)=O)CC2C(=O)NO)cc1 (configuration not stated) | 197 nM
33 | CC#CCOc1ccc(S(=O)(=O)N2Cc3cc(N(C)CCc4ccccn4)ccc3N(C(C)=O)CC2C(=O)NO)cc1 (configuration not stated) | 121 nM
34 | CC#CCOc1ccc(S(=O)(=O)N2Cc3ccc(CN(C)C)cc3N(C(C)=O)CC2C(=O)NO)cc1 (configuration not stated) | 18 nM
35 | CC#CCOc1ccc(S(=O)(=O)N2Cc3ccccc3N(C(=O)c3cccnc3)CC2C(=O)NO)cc1 (configuration not stated) | 89 nM
36 | CC#CCOc1ccc(S(=O)(=O)N2Cc3ccc(CNC)cc3N(C(C)=O)CC2C(=O)NO)cc1 (configuration not stated) | 14 nM
37 | CC#CCOc1ccc(S(=O)(=O)N2Cc3ccc(CN4CCNCC4)cc3N(C(C)=O)CC2C(=O)NO)cc1 (configuration not stated) | 14 nM
38 | CC#CCOc1ccc(S(=O)(=O)N2Cc3ccc(CO)cc3N(C(C)=O)CC2C(=O)NO)cc1 (configuration not stated) | 12 nM
39 | CC#CCOc1ccc(S(=O)(=O)N2Cc3ccc(C(=O)NC)cc3N(C(C)=O)CC2C(=O)NO)cc1 (configuration not stated) | 41 nM
40 | CC#CCOc1ccc(S(=O)(=O)N2Cc3cc(OCCc4ccccc4)ccc3N(C(C)=O)CC2C(=O)NO)cc1 (configuration not stated) | 36 nM
41 | CC#CCOc1ccc(S(=O)(=O)N2Cc3ccc(CNC(C)=O)cc3N(C(C)=O)CC2C(=O)NO)cc1 (configuration not stated) | 31 nM
42 | CC#CCOc1ccc(S(=O)(=O)N2Cc3ccccc3N(C(=O)c3cnccn3)CC2C(=O)NO)cc1 (configuration not stated) | 69 nM
43 | CC#CCOc1ccc(S(=O)(=O)N2Cc3cc(N4CCOCC4)ccc3N(C(C)=O)CC2C(=O)NO)cc1 (configuration not stated) | 130 nM
44 | CC#CCOc1ccc(S(=O)(=O)N2Cc3cc(N4CCN(C)CC4)ccc3N(C(C)=O)CC2C(=O)NO)cc1 (configuration not stated) | 92 nM

Target: Collagenase 3 (Homo sapiens, UniProt P45452)
Assay: In vitro inhibitory activity against matrix metalloprotease-13
Conditions: not given

Row | Compound | IC50
45 | CC#CCOc1ccc(S(=O)(=O)N2Cc3ccccc3N(C(=O)COC)CC2C(=O)NO)cc1 (configuration not stated) | 97 nM
46 | CC#CCOc1ccc(S(=O)(=O)N2Cc3cc(NCCc4ccccn4)ccc3N(C(C)=O)CC2C(=O)NO)cc1 (configuration not stated) | 47 nM
47 | CC#CCOc1ccc(S(=O)(=O)N2Cc3cc(N(C)C)ccc3N(C(C)=O)CC2C(=O)NO)cc1 (configuration not stated) | 17 nM
48 | CC#CCOc1ccc(S(=O)(=O)N2Cc3cc(N(C)CCc4ccccn4)ccc3N(C(C)=O)CC2C(=O)NO)cc1 (configuration not stated) | 53 nM
49 | CC#CCOc1ccc(S(=O)(=O)N2Cc3ccc(CN(C)C)cc3N(C(C)=O)CC2C(=O)NO)cc1 (configuration not stated) | 67 nM
50 | CC#CCOc1ccc(S(=O)(=O)N2Cc3ccccc3N(C(=O)c3cccnc3)CC2C(=O)NO)cc1 (configuration not stated) | 19 nM
51 | CC#CCOc1ccc(S(=O)(=O)N2Cc3ccc(CNC)cc3N(C(C)=O)CC2C(=O)NO)cc1 (configuration not stated) | 32 nM
52 | CC#CCOc1ccc(S(=O)(=O)N2Cc3ccc(CN4CCNCC4)cc3N(C(C)=O)CC2C(=O)NO)cc1 (configuration not stated) | 17 nM
53 | CC#CCOc1ccc(S(=O)(=O)N2Cc3ccc(CO)cc3N(C(C)=O)CC2C(=O)NO)cc1 (configuration not stated) | 20 nM
54 | CC#CCOc1ccc(S(=O)(=O)N2Cc3ccc(C(=O)NC)cc3N(C(C)=O)CC2C(=O)NO)cc1 (configuration not stated) | 42 nM
55 | CC#CCOc1ccc(S(=O)(=O)N2Cc3cc(OCCc4ccccc4)ccc3N(C(C)=O)CC2C(=O)NO)cc1 (configuration not stated) | 28 nM
56 | CC#CCOc1ccc(S(=O)(=O)N2Cc3ccc(CNC(C)=O)cc3N(C(C)=O)CC2C(=O)NO)cc1 (configuration not stated) | 12 nM
57 | CC#CCOc1ccc(S(=O)(=O)N2Cc3ccccc3N(C(=O)c3cnccn3)CC2C(=O)NO)cc1 (configuration not stated) | 20 nM
58 | CC#CCOc1ccc(S(=O)(=O)N2Cc3cc(N4CCOCC4)ccc3N(C(C)=O)CC2C(=O)NO)cc1 (configuration not stated) | 33 nM
59 | CC#CCOc1ccc(S(=O)(=O)N2Cc3cc(N4CCN(C)CC4)ccc3N(C(C)=O)CC2C(=O)NO)cc1 (configuration not stated) | 21 nM

Target: T2, Interstitial collagenase (Homo sapiens) (UniProt P03956)
T2 sequence (whole entry): T1 sequence (P03956 whole entry)
Assay: In vitro inhibitory activity against matrix metallo proteinase-1 at 1 uM concentration
Conditions: not given

Row | Compound | inhibition
60 | CC#CCOc1ccc(S(=O)(=O)N2Cc3cc(NCCc4ccccn4)ccc3N(C(C)=O)CC2C(=O)NO)cc1 (configuration not stated) | 30%
61 | CC#CCOc1ccc(S(=O)(=O)N2Cc3cc(N(C)CCc4ccccn4)ccc3N(C(C)=O)CC2C(=O)NO)cc1 (configuration not stated) | 19%
62 | CC#CCOc1ccc(S(=O)(=O)N2Cc3cc(OCCc4ccccc4)ccc3N(C(C)=O)CC2C(=O)NO)cc1 (configuration not stated) | 45%
